Test results from patent US12104143B2, “Compositions comprising cellulase with a nonionic surfactant and a quaternary ammonium compound” (ECOLAB USA INC., priority 2018, dated 2024).

Experiments:
DRAIN EASE FLOW activity = experiment: Enzyme stability: retained DRAIN EASE FLOW activity in degrading a sugar snake after incubation at 37° C. (Example 6); type: physicochemical; settings: 20% stabilizer, 1.0% active Bardac 205M, pH about 4.5
Description: Enzyme stability was tested in cleaning compositions prepared with differing stabilizers. […] The effect of pH on stability was also assessed by testing compositions at a pH of 4.5 and 5.5. […] Enzyme stability was again assessed by an activity assay. […] This increased stability is even more pronounced when formulated with 1% active Bardac […].

cellulase activity = experiment: Shelf life stability by enzyme activity assay, incubated at 37° C. over 8 weeks (Examples 8-10); type: physicochemical; settings: for remaining cellulase activity: 4 weeks at 37° C.
Description: The impact of pH on shelf life stability was examined. […] The compositions were adjusted to a pH of 4.00, 4.25, and 4.50. Enzyme stability was assessed by an activity assay.
The compositions were adjusted to a pH of 4.25. Two control compositions were also prepared, one without a surfactant and one with the anionic surfactant, […] (SLS), as a negative control. Enzyme stability was assessed by an activity assay. […] The control containing no surfactant approached 0% remaining activity after the 8-week period.
Different stabilizers—glycerol and PEG 200—were tested to assess their effect on shelf life stability of formulations including a quaternary amine. […] The compositions were adjusted to a pH of 4.25. Enzyme stability was assessed by an activity enzyme. A control composition was also prepared having no stabilizer.

[1] = system: dark eyed fruit flies (DEFF); experiment: Adult fly emergence test, dark eyed fruit flies (DEFF); type: in vivo; settings: 1.8% sodium citrate, pH about 4.5; 1% active Bardac 205M, 0.5% Cellulase B or 2% Tween 20 (Test Comp. C, B, A)
Description: Tests were performed to assess the cleaning compositions' effectiveness against insects. Small flies, which are common near clogged drains for beverage towers were used for these tests. Carolina Biological Formula 2-24 Instant Drosophila Medium was mixed with water in equal parts liquid to media by volume. A small pinch of active yeast was also added. The media was allowed to sit for two days before the start of the test, allowing the yeast time to ferment and ensure there will be enough food available for fly larvae when introduced in the media. Ten larvae of each fly species are placed into the fruit fly vials containing media two days after starting the media. The age of the larvae varies, but the majority of the larvae in each vial were mid instars larvae. Mature larvae were avoided to prevent pupation before the product is added. Each treatment had 5 replicates, for a total of 50 larvae of each species per treatment. Larvae were collected from the media of existing fly rearing containers. Emergence of adult flies was recorded at one week, two weeks, and three weeks to determine how many of the […] larvae had completed development and emerged as adults. The test was maintained at 80° F. and ambient humidity. Tween 20 was tested as an exemplary nonionic surfactant. DRAIN EASE FLOW from Novozymes was tested as an exemplary enzyme composition. […]

[2] = Cellulase catalyzed hydrolysis of bacterial cellulose (sugar snake degradation) with stabilizers (Example 7); type: biochemical; settings: 10% stabilizer; 0.5 wt. % DRAIN EASE FLOW, 2 wt. % Tween 20, 0.1 wt. % Bardac 205M, pH about 4.0; 20 mL/g, 2 hours
Description: The stabilizers tested were PEG 200, Glycerol, Propylene Glycol, and Sucrose. A composition was also prepared without a stabilizer. All the compositions were prepared in water at a pH of about 4.0. A piece of sugar snake weighing about 5 grams was used to screen enzyme performance. The chemistry was dosed at 20 mL/g sugar snake and incubated for 2 hours. The relative enzyme performance was determined at each concentration by comparing the performance to control formulations lacking stabilizer. The results are provided in FIG. 11 where 40 indicates 40% degradation.

## CC(O)CO (stereo not drawn) [propylene glycol]
DRAIN EASE FLOW activity
  enzyme stability relative to control formulations lacking stabilizer: did not enhance stability

## OCC(O)CO [glycerol]
Cellulase activity; 10% stabilizer, both quaternary amine concentrations (175 ppm and 1000 ppm), pH 4.25
  remaining cellulase activity: > 95%
Cellulase activity; 10 wt. % stabilizer or none, 175 ppm or 1000 ppm Bardac 205M, pH 4.25, 37° C.
  shelf life stability ranking among stabilizers: best stability
DRAIN EASE FLOW activity
  enzyme stability relative to control formulations lacking stabilizer: enhanced stability

## CCCCCCCCCCCC(=O)OCCOCCOCCOCCOCCOCCOCCOCCOCCOCCOCCOCCOCCOCCOCCOCCOCCOCCOCCOCCOCC(OCCOCCOCCOCCOCCOCCOCCOCCOCCOCCOCCOCCOCCOCCOCCOCCOCCOCCOCCOCCO)C1OCC(OCCOCCOCCOCCOCCOCCOCCOCCOCCOCCOCCOCCOCCOCCOCCOCCOCCOCCOCCOCCO)C1OCCOCCOCCOCCOCCOCCOCCOCCOCCOCCOCCOCCOCCOCCOCCOCCOCCOCCOCCOCCO (stereo not drawn) [Tween 20, polyethylene glycol sorbitan monolaurate]
Cellulase activity; 2 wt. % surfactant (or none), 0.2 wt. % Bardac 205M, 10 wt. % PEG 200, 0.5 wt. % DRAIN EASE FLOW, pH 4.25, 37° C.
  residual activity after 8 weeks: 55%
Cellulase activity; 2 wt. % surfactant, 0.2 wt. % Bardac 205M, 10 wt. % PEG 200, pH 4.25, 37° C., 8 weeks
  shelf stability ranking among surfactants: best stability
[1]
  adult DEFF emergence relative to the water and buffer only controls: not statistically significant

## polyethylene glycol 400 [PEG 400]
DRAIN EASE FLOW activity
  enzyme stability relative to control formulations lacking stabilizer: did not enhance stability

## polyethylene glycol 200 [PEG 200]
Cellulase activity; 10% stabilizer, 175 ppm quaternary amine, pH 4.25
  remaining cellulase activity: > 40%
Cellulase activity; 10% stabilizer, 1000 ppm quaternary, pH 4.25, 37° C.
  shelf life stability: enhanced stability
DRAIN EASE FLOW activity
  enzyme stability relative to control formulations lacking stabilizer: enhanced stability

## OC[C@H]1O[C@@](CO)(O[C@H]2O[C@H](CO)[C@@H](O)[C@H](O)[C@H]2O)[C@@H](O)[C@@H]1O [sucrose]
[2]
  sugar snake degradation performance versus control formulations lacking stabilizer: did not statistically impact performance
